Starred links: 1 amine or outer side, 2 acyl side, 3 side chain; linkers in the order of their positions; H or OH if unused. Non-standard residues stand in square brackets, D forms with d. Residues, ends and D or L forms follow the SMILES beside them. Groups on a side chain read outwards from the residue. *: point of attachment. C18 diacid = O=C(O)CCCCCCCCCCCCCCCCC(=O)*; γGlu = O=C(O)[C@H](CCC(=O)[*:2])N[*:1]; NMeY = CN[C@@H](Cc1ccc(O)cc1)C(=O)O; AEEA = NCCOCCOCC(=O)O; Aib = CC(C)(N)C(=O)O
Experiment: physchem
Experimental: Solubility of the GIPR peptides may be determined by dissolution in a phosphate buffer followed by quantitation using liquid chromatography, for example, High Performance Liquid Chromatogry (HPLC). An illustrative method is provided. For determination of the solubility of the GIPr agonist peptides, 3 mg of peptides are weighted out in a small glass vial. 100 μL of 200 mM Phosphate buffer pH 7.4 are added and the vial is sonicated/votexed as necessary for a maximum of 1 min. […] If insoluble material is observed in the tube the addition of 100 μL of buffer and mixing is repeated until complete dissolution.
3 mg of peptides are weighted out in a small glass vial. 100 uL of 200 mM Phosphate buffer pH 7.4 are added and the vial is sonicated/votexed as necessary for a maximum of 1 min. […] If insoluble material is observed in the tube the addition of 100 uL of buffer and mixing is repeated until complete dissolution.

[1] = pH 7.4, aqueous buffer, pH 7.4 Phosphate Buffer - Solubility, 200 mM Phosphate buffer pH 7.4
[2] = pH 7.4, solubility in phosphate buffer at pH 7.4, 200 mM phosphate buffer pH 7.4

Which solubility (pH 7.4) does the source give for `CC[C@H](C)[C@H](NC(=O)[C@H](CO)NC(=O)[C@H](Cc1ccc(O)cc1)NC(=O)[C@H](CC(=O)O)NC(=O)[C@H](CO)NC(=O)[C@@H](NC(=O)[C@H](Cc1ccccc1)NC(=O)[C@@H](NC(=O)CNC(=O)[C@H](CCC(=O)O)NC(=O)C(C)(C)NC(=O)[C@H](Cc1ccc(O)cc1)NC)[C@@H](C)O)[C@@H](C)CC)C(=O)N[C@@H](C)C(=O)N[C@@H](CC(C)C)C(=O)N[C@@H](CC(=O)O)C(=O)N[C@@H](CCCNC(=N)N)C(=O)NC(C)(C)C(=O)N[C@@H](CCCCNC(=O)COCCOCCNC(=O)COCCOCCNC(=O)CC[C@H](NC(=O)CC[C@H](NC(=O)CCCCCCCCCCCCCCCCC(=O)O)C(=O)O)C(=O)O)C(=O)N[C@@H](CCC(N)=O)C(=O)NC(C)(C)C(=O)N[C@@H](CC(N)=O)C(=O)N[C@@H](Cc1ccccc1)C(=O)N[C@H](C(=O)N[C@@H](CC(N)=O)C(=O)N[C@@H](Cc1c[nH]c2ccccc12)C(=O)N[C@@H](CC(C)C)C(=O)N[C@@H](CC(C)C)C(=O)N[C@@H](C)C(=O)N[C@@H](CCC(N)=O)C(=O)N[C@@H](CCCNC(=N)N)C(N)=O)C(C)C` [Compound 17] (H-[NMeY][Aib]EGTFISDYSIALDR[Aib]K([AEEA-AEEA-γGlu-γGlu-C18 diacid])Q[Aib]NFVNWLLAQR-NH2) here?
The solubility was ≥ 15 mg/mL.

What about the solubility (pH 7.4, aqueous buffer) of the same molecule?
The solubility was ≥ 30 mg/mL.

With `CC[C@H](C)[C@H](NC(=O)[C@H](CO)NC(=O)[C@H](Cc1ccc(O)cc1)NC(=O)[C@H](CC(=O)O)NC(=O)[C@H](CO)NC(=O)[C@@H](NC(=O)[C@H](Cc1ccccc1)NC(=O)[C@@H](NC(=O)CNC(=O)[C@H](CCC(=O)O)NC(=O)C(C)(C)NC(=O)[C@H](Cc1ccc(O)cc1)NC)[C@@H](C)O)[C@@H](C)CC)C(=O)N[C@@H](C)C(=O)N[C@@H](CC(C)C)C(=O)N[C@@H](CC(=O)O)C(=O)N[C@@H](CCCNC(=N)N)C(=O)NC(C)(C)C(=O)N[C@@H](Cc1c[nH]cn1)C(=O)N[C@@H](CCC(N)=O)C(=O)NC(C)(C)C(=O)N[C@@H](CCCCNC(=O)COCCOCCNC(=O)COCCOCCNC(=O)CC[C@H](NC(=O)CC[C@H](NC(=O)CCCCCCCCCCCCCCCCC(=O)O)C(=O)O)C(=O)O)C(=O)N[C@@H](Cc1ccccc1)C(=O)N[C@H](C(=O)N[C@@H](CC(N)=O)C(=O)N[C@@H](Cc1c[nH]c2ccccc12)C(=O)N[C@@H](CC(C)C)C(=O)N[C@@H](CC(C)C)C(=O)N[C@@H](C)C(=O)N[C@@H](CCC(N)=O)C(=O)N[C@@H](CCCNC(=N)N)C(N)=O)C(C)C` [Compound 18] (H-[NMeY][Aib]EGTFISDYSIALDR[Aib]HQ[Aib]K([AEEA-AEEA-γGlu-γGlu-C18 diacid])FVNWLLAQR-NH2) as the molecule, how does the solubility (pH 7.4) read?
The solubility was ≥ 15 mg/mL.

What about the solubility (pH 7.4, aqueous buffer) of the same molecule?
Its solubility is ≥ 30 mg/mL.

For `CC[C@H](C)[C@H](NC(=O)[C@H](CO)NC(=O)[C@H](Cc1ccc(O)cc1)NC(=O)[C@H](CC(=O)O)NC(=O)[C@H](CO)NC(=O)[C@@H](NC(=O)[C@H](Cc1ccccc1)NC(=O)[C@@H](NC(=O)CNC(=O)[C@H](CCC(=O)O)NC(=O)C(C)(C)NC(=O)[C@H](Cc1ccc(O)cc1)NC)[C@@H](C)O)[C@@H](C)CC)C(=O)N[C@@H](C)C(=O)N[C@@H](CC(C)C)C(=O)N[C@@H](CC(=O)O)C(=O)N[C@@H](CCCNC(=N)N)C(=O)N[C@@H](CCCCNC(=O)CNC(=O)CNC(=O)CNC(=O)CNC(=O)CNC(=O)CC[C@H](NC(=O)CCCCCCCCCCCCCCCC(=O)O)C(=O)O)C(=O)N[C@@H](Cc1c[nH]cn1)C(=O)N[C@@H](CCC(N)=O)C(=O)NC(C)(C)C(=O)N[C@@H](CC(N)=O)C(=O)N[C@@H](Cc1ccccc1)C(=O)N[C@H](C(=O)N[C@@H](CC(N)=O)C(=O)N[C@@H](Cc1c[nH]c2ccccc12)C(=O)N[C@@H](CC(C)C)C(=O)N[C@@H](CC(C)C)C(=O)N[C@@H](C)C(=O)N[C@@H](CCC(N)=O)C(=O)N[C@@H](CCCNC(=N)N)C(=O)N1CCC[C@H]1C(=O)N[C@@H](CO)C(=O)N[C@@H](CO)C(=O)NCC(=O)N[C@@H](C)C(=O)N1CCC[C@H]1C(=O)N1CCC[C@H]1C(=O)N1CCC[C@H]1C(=O)N[C@@H](CO)C(=O)O)C(C)C` [Compound 20], which solubility [1] is on record?
Its solubility is ≥ 15 mg/mL.

With `CC[C@H](C)[C@H](NC(=O)[C@H](CO)NC(=O)[C@H](Cc1ccc(O)cc1)NC(=O)[C@H](CC(=O)O)NC(=O)[C@H](CO)NC(=O)[C@@H](NC(=O)[C@H](Cc1ccccc1)NC(=O)[C@@H](NC(=O)CNC(=O)[C@H](CCC(=O)O)NC(=O)C(C)(C)NC(=O)[C@H](Cc1ccc(O)cc1)NC)[C@@H](C)O)[C@@H](C)CC)C(=O)N[C@@H](C)C(=O)N[C@@H](CC(C)C)C(=O)N[C@@H](CC(=O)O)C(=O)N[C@@H](CCCNC(=N)N)C(=O)NC(C)(C)C(=O)N[C@@H](C)C(=O)N[C@@H](CCC(N)=O)C(=O)NC(C)(C)C(=O)N[C@@H](CCCCNC(=O)COCCOCCNC(=O)COCCOCCNC(=O)CC[C@H](NC(=O)CC[C@H](NC(=O)CCCCCCCCCCCCCCCCC(=O)O)C(=O)O)C(=O)O)C(=O)N[C@@H](Cc1ccccc1)C(=O)N[C@H](C(=O)N[C@@H](CC(N)=O)C(=O)N[C@@H](Cc1c[nH]c2ccccc12)C(=O)N[C@@H](CC(C)C)C(=O)N[C@@H](CC(C)C)C(=O)N[C@@H](C)C(=O)N[C@@H](CCC(N)=O)C(=O)N[C@@H](CCCNC(=N)N)C(=O)NCC(=O)NCC(=O)NCC(=O)NCC(=O)N[C@@H](CO)C(N)=O)C(C)C` [Compound 21] (H-[NMeY][Aib]EGTFISDYSIALDR[Aib]AQ[Aib]K([AEEA-AEEA-γGlu-γGlu-C18 diacid])FVNWLLAQRGGGGS-NH2) as the molecule, how does the solubility (pH 7.4) read?
The solubility was ≥ 15 mg/mL.

What about the solubility (pH 7.4, aqueous buffer) of the same molecule?
The solubility was ≥ 30 mg/mL.

With `CC[C@H](C)[C@H](NC(=O)[C@H](CO)NC(=O)[C@H](Cc1ccc(O)cc1)NC(=O)[C@H](CC(=O)O)NC(=O)[C@H](CO)NC(=O)[C@@H](NC(=O)[C@H](Cc1ccccc1)NC(=O)[C@@H](NC(=O)CNC(=O)[C@H](CCC(=O)O)NC(=O)C(C)(C)NC(=O)[C@H](Cc1ccc(O)cc1)NC)[C@@H](C)O)[C@@H](C)CC)C(=O)N[C@@H](C)C(=O)N[C@@H](CCCCNC(=O)CNC(=O)CNC(=O)CNC(=O)CNC(=O)CNC(=O)CC[C@H](NC(=O)CCCCCCCCCCCCCCCC(=O)O)C(=O)O)C(=O)N[C@@H](CC(=O)O)C(=O)N[C@@H](CCCNC(=N)N)C(=O)NC(C)(C)C(=O)N[C@@H](C)C(=O)N[C@@H](CCC(N)=O)C(=O)NC(C)(C)C(=O)N[C@@H](CC(=O)O)C(=O)N[C@@H](Cc1ccccc1)C(=O)N[C@H](C(=O)N[C@@H](CC(N)=O)C(=O)N[C@@H](Cc1c[nH]c2ccccc12)C(=O)N[C@@H](CC(C)C)C(=O)N[C@@H](CC(C)C)C(=O)N[C@@H](C)C(=O)N[C@@H](CCC(N)=O)C(=O)N[C@@H](CCCNC(=N)N)C(=O)N1CCC[C@H]1C(=O)N[C@@H](CO)C(=O)N[C@@H](CO)C(=O)NCC(=O)N[C@@H](C)C(=O)N1CCC[C@H]1C(=O)N1CCC[C@H]1C(=O)N1CCC[C@H]1C(=O)N[C@@H](CO)C(N)=O)C(C)C` [Compound 22] as the molecule, how does the solubility [1] read?
Its solubility is ≥ 30 mg/mL.

What about the solubility [2] of the same molecule?
Its solubility is ≥ 15 mg/mL.

Which results are given for `CC[C@H](C)[C@H](NC(=O)[C@H](CO)NC(=O)[C@H](Cc1ccc(O)cc1)NC(=O)[C@H](CC(=O)O)NC(=O)[C@H](CO)NC(=O)[C@@H](NC(=O)[C@H](Cc1ccccc1)NC(=O)[C@@H](NC(=O)CNC(=O)[C@H](CCC(=O)O)NC(=O)C(C)(C)NC(=O)[C@H](Cc1ccc(O)cc1)NC)[C@@H](C)O)[C@@H](C)CC)C(=O)N[C@@H](C)C(=O)N[C@@H](CC(C)C)C(=O)N[C@@H](CC(=O)O)C(=O)N[C@@H](CCCNC(=N)N)C(=O)N[C@@H](CCCCNC(=O)COCCOCCNC(=O)COCCOCCNC(=O)CC[C@H](NC(=O)CCCCCCCCCCCCCCCCC(=O)O)C(=O)O)C(=O)N[C@@H](C)C(=O)N[C@@H](CCC(N)=O)C(=O)NC(C)(C)C(=O)N[C@@H](CC(=O)O)C(=O)N[C@@H](Cc1ccccc1)C(=O)N[C@H](C(=O)N[C@@H](CC(N)=O)C(=O)N[C@@H](Cc1c[nH]c2ccccc12)C(=O)N[C@@H](CC(C)C)C(=O)N[C@@H](CC(C)C)C(=O)N[C@@H](C)C(=O)N[C@@H](CCC(N)=O)C(=O)N[C@@H](CCCNC(=N)N)C(=O)N1CCC[C@H]1C(=O)N[C@@H](CO)C(=O)N[C@@H](CO)C(=O)NCC(=O)N[C@@H](C)C(=O)N1CCC[C@H]1C(=O)N1CCC[C@H]1C(=O)N1CCC[C@H]1C(=O)N[C@@H](CO)C(N)=O)C(C)C` [Compound 23] (H-[NMeY][Aib]EGTFISDYSIALDRK([AEEA-AEEA-γGlu-C18 diacid])AQ[Aib]DFVNWLLAQRPSSGAPPPS-NH2)?
solubility [1]: ≥ 30 mg/mL; solubility [2]: ≥ 15 mg/mL

For `CC[C@H](C)[C@H](NC(=O)[C@H](CO)NC(=O)[C@H](Cc1ccc(O)cc1)NC(=O)[C@H](CC(=O)O)NC(=O)[C@H](CO)NC(=O)[C@@H](NC(=O)[C@H](Cc1ccccc1)NC(=O)[C@@H](NC(=O)CNC(=O)[C@H](CCC(=O)O)NC(=O)C(C)(C)NC(=O)[C@H](Cc1ccc(O)cc1)NC)[C@@H](C)O)[C@@H](C)CC)C(=O)N[C@@H](C)C(=O)N[C@@H](CCCCNC(=O)CNC(=O)CNC(=O)CNC(=O)CNC(=O)CNC(=O)CC[C@H](NC(=O)CCCCCCCCCCCCCCCCC(=O)O)C(=O)O)C(=O)N[C@@H](CC(=O)O)C(=O)N[C@@H](CCCNC(=N)N)C(=O)NC(C)(C)C(=O)N[C@@H](C)C(=O)N[C@@H](CCC(N)=O)C(=O)NC(C)(C)C(=O)N[C@@H](CC(=O)O)C(=O)N[C@@H](Cc1ccccc1)C(=O)N[C@H](C(=O)N[C@@H](CC(N)=O)C(=O)N[C@@H](Cc1c[nH]c2ccccc12)C(=O)N[C@@H](CC(C)C)C(=O)N[C@@H](CC(C)C)C(=O)N[C@@H](C)C(=O)N[C@@H](CCC(N)=O)C(=O)N[C@@H](CCCNC(=N)N)C(=O)N1CCC[C@H]1C(=O)N[C@@H](CO)C(=O)N[C@@H](CO)C(=O)NCC(=O)N[C@@H](C)C(=O)N1CCC[C@H]1C(=O)N1CCC[C@H]1C(=O)N1CCC[C@H]1C(=O)N[C@@H](CO)C(N)=O)C(C)C` [Compound 24], which solubility [1] is on record?
The solubility was ≥ 30 mg/mL.

And the solubility [2]?
Its solubility is ≥ 15 mg/mL.
